Laboratory results: patent US6392055B1, “Synthesis and biological evaluation of analogs of the antimitotic marine natural product curacin A” (The University of Pittsburgh, priority 2000, dated 2002)
Read-outs that look alike come from different tables or passages of the source.

Assays:
[1] = test system: isolated bovine brain tubulin; assay: Inhibition of GTP/glutamate-induced tubulin polymerization (turbidimetric, 30° C.); format: biochemical; details: for IC50: read-out: 50% Tubulin Polymerization Inhibition Concentration (TPI) IC50, 30° C., 10 μM tubulin; for % TPI 5 μM / Percent Tubulin Polymerization Inhibition (TPI), 5 μM: 5 μM compound
[2] = biological target: tubulin (colchicine site); assay: Inhibition of [3H]colchicine binding to tubulin; design: species or system bovine; details: for IC50: 5 μM [3H]colchicine, 1 μM tubulin; for % CBI 5 μM, (30° C.) / % CBI 5 μM, 37° C. / Percent Colchicine Binding Inhibition (CBI), 5 μM: 5 μM compound; for % CBI 5 μM, (30° C.) / % CBI 50 μM, (30° C.): 30° C. (values in parentheses); for % CBI 50 μM, (30° C.) / % CBI 50 μM, 37° C. / Percent Colchicine Binding Inhibition (CBI), 50 μM: 50 μM compound; for Percent Colchicine Binding Inhibition (CBI), 1 μM: 1 μM compound
Procedure: Assays to determine whether 15mix-17mix inhibited binding of [^3H]colchicine to tubulin at both 30° C. and 37° C. were performed. This was accomplished using methods described previously. Kang, G.-J.; Getahun, Z.; Muzaffar, A.; Brossi, A.; Hamel, E. J. Biol. Chem. 1990, 265, 10255; Verdier-Pinard, P.; Lai, J.-Y.; Yoo, H.-D.; Yu, J.; Marquez, B.; Nagle, D. G.; Nambu, M.; White, J. D.; Falck, J. R.; Gerwick, W. H.; Day, B. W.; Hamel, E. Mol. Pharmacol. 1998, 53, 62. Briefly, 5 μM [^3H]colchicine (2.3 TBq/mmol), drug (1, 5, 10, 50, or 250 μM), or vehicle (DMSO, 5% v/v) were incubated at 30° C. for 15 minutes or at 37° C. for 10 minutes with 1 μM tubulin in the presence of 1 M monosodium glutamate, 0.1 M glucose-1-phosphate, 1 mM MgCl2, 1 mM GTP, and 0.5 mg/mL bovine serum albumin. The solutions were filtered through two stacks of DEAE-cellulose filters and the radioactivity in the filtrate was determined by scintillation spectrometry. Each series of determinations included positive controls of 1, 5, and/or 50 μM curacin A.

PC-3 cells = assay: Growth inhibition of prostate carcinoma cells (MTS); format: cell-based, human
[3] = test system: MCF-7 human breast carcinoma cells; assay: Mitotic index by immunofluorescence of phosphorylated core histone; format: cell-based; details: for concentration causing maximum mitotic block: 0.0075-15 μM
Procedure: Further verification of the biological activity of compounds 17a-e was obtained in living tumor cells by quantifying their effect on mitotic index, essentially, counting the number of cells in the mitotic phase of the cell cycle. Antimitotic compounds increase the mitotic index, which can be quantified immunohistochemically using an antibody to a mitosis-specific phosphorylated core histone protein. MCF-7 human breast carcinoma cells were treated with increasing concentrations of compounds 17a-e (7.8-1000 nM), curacin A (3.1-400 nM), and vinblastine (0.08-10 nM) for 14-16 hours. The morphology of the cellular nuclei and the mircrotubule cytoskeleton, as well as the phosphorylation of a core histone protein, were visualized using a multiparameter immunofluorescence approach. […] Compound 17b induced cell rounding and the generalized loss of structured microtubules in the same cells. The mitotic index in drug-treated cells was measured. To assess the relative activity of compounds 17a-e and two known microtubule disrupting drugs, vinblastine and curacin A, the minimum effective concentration of each drug was measured.
Phosphorylation of histone H3 occurs during mitosis and is linked to chromosome condensation. Thus, antimitotic agents cause an accumulation of cells containing […]. Wei, Y.; Mizzen, C. A.; Cook, R. G.; Gorovsky, M. A.; Allis, C. D. Proc. Natl Acad. Sci. USA 1998, 95, 7480. MCF-7 human breast carcinoma cells were treated with increasing concentrations (0.0075-15 μM) of 17mix and 17a-e for 14 hours and mitotic index quantities automatically. […] Vinblastine, a classic mitotic inhibitor, was tested over a range of 0.49 nM to 0.1 μM and caused a maximum accumulation of adherent cells in mitosis of 26%.

MDA-MB231 cells = assay: Growth inhibition of breast carcinoma cells (MTS); format: cell-based, human
2008 cells = assay: Growth inhibition of ovarian carcinoma cells (MTS); format: cell-based, human
[4] = incubation at 30° C. for 15 minutes, read-out: 50% Colchicine Binding Inhibitory Concentration (CBI), 30° C.
[5] = incubation at 37° C. for 10 minutes, read-out: 50% Colchicine Binding Inhibitory Concentration (CBI), 37° C.
[6] = Homo sapiens, PC-3, 48 h, read-out: GI50 PC-3 (48 h)
[7] = Homo sapiens, MDA-MB-231, 48 h, read-out: GI50 MDA-MB231 (48 h)
[8] = Homo sapiens, Ovarian carcinoma cell, 48 h, read-out: GI50 2008 (48 h)
[9] = 96 h, read-out: GI50 PC3 (prostate) 96 h
[10] = read-out: GI50 PC3 (prostate) 48 h, 48 h
[11] = 96 h, read-out: GI50 MDA-MB231 (breast) 96 h
[12] = read-out: GI50 MDA-MB231 (breast) 48 h, 48 h
[13] = 96 h, read-out: GI50 2008 (ovarian) 96 h
[14] = read-out: GI50 2008 (ovarian) 48 h, 48 h
[15] = 96 h, Table II prints no unit, read-out: GI50 PC3 96 h
[16] = read-out: GI50 PC3 48 h, 48 h, Table II prints no unit
[17] = 96 h, Table II prints no unit, read-out: GI50 MDA 96 h
[18] = read-out: GI50 MDA 48 h, 48 h, Table II prints no unit
[19] = 96 h, Table II prints no unit, read-out: GI50 2008 96 h
[20] = read-out: GI50 2008 48 h, 48 h, Table II prints no unit

SMILES | IC50 [1] [µM] | IC50 [2, 4] [µM] | IC50 [2, 5] [µM] | GI50 (PC-3 cells; [6]) [µM] | GI50 (MDA-MB231 cells; [7]) [µM] | GI50 (2008 cells; [8]) [µM] | Percent Tubulin Polymerization Inhibition (TPI), 5 μM [1] [%] | Percent Colchicine Binding Inhibition (CBI), 5 μM [2] [%] | Percent Colchicine Binding Inhibition (CBI), 50 μM [2] [%] | GI50 (PC-3 cells; [15]) [µM] | GI50 (PC-3 cells; [16]) [µM] | GI50 (MDA-MB231 cells; [17]) [µM] | GI50 (MDA-MB231 cells; [18]) [µM] | GI50 (2008 cells; [19]) [µM] | GI50 (2008 cells; [20]) [µM] | also measured
COc1cc(/C=C\CC/C=C/C=C(\C)CCC(O)c2cc3ccccc3o2)cc(OC)c1OC (stereo not shown) [Compound 17e, (4E,6E,10Z)-11-(3,4,5-Trimethoxyphenyl)-4-methyl-1-benzofuran-2-ylundeca-4,6,10-trien-1-ol] | 1.6 | 9 ± 4 | 28 ± 8 | 0.31 ± 0.2 | 0.12 ± 0.07 | 0.27 ± 0.05 | – | – | – | – | – | – | – | – | – | concentration causing maximum mitotic block ([3]; 14 hours): sub-micromolar
CC[C@]1(O)C[C@@H]2CN(CCc3c([nH]c4ccccc34)[C@@](C(=O)OC)(c3cc4c(cc3OC)N(C)[C@H]3[C@@](O)(C(=O)OC)[C@H](OC(C)=O)[C@]5(CC)C=CCN6CC[C@]43[C@@H]65)C2)C1 [Vinblastine, vinblastine, reference compound] | – | – | – | – | – | – | – | – | – | – | – | – | – | – | – | maximum accumulation of adherent cells in mitosis ([3]; tested over 0.49 nM to 0.1 μM, 14 hours): 26%
C=CC[C@@H](CC[C@@]1(C)C[C@H]1[C@H]1C[C@@H]1CC/C=C\[C@@H]1CSC([C@@H]2C[C@@H]2C)=N1)OC [JR DCCA] | – | – | – | – | – | – | – | – | – | – | – | – | – | – | – | % TPI 5 μM [1]: 0%; % CBI 5 μM, (30° C.) [2]: (9 ± 5) %; % CBI 5 μM, 37° C. [2]: −39 ± 7%; % CBI 50 μM, (30° C.) [2]: (−12 ± 9) %; % CBI 50 μM, 37° C. [2]: −62 ± 5%; GI50 (PC-3 cells; [9]): > 50 µM; GI50 (PC-3 cells; [10]): > 50 µM; GI50 (MDA-MB231 cells; [11]): > 50 µM; GI50 (MDA-MB231 cells; [12]): > 50 µM; GI50 (2008 cells; [13]): > 50 µM; GI50 (2008 cells; [14]): > 50 µM
C=CC[C@@H](CC/C(C)=C/C=C/CC/C=C\[C@@H]1COC(C(C)(C)C)=N1)OC [JRC1] | – | – | – | – | – | – | – | – | – | – | – | – | – | – | – | % TPI 5 μM [1]: 0%; % CBI 5 μM, (30° C.) [2]: (14 ± 5) %; % CBI 5 μM, 37° C. [2]: 0 ± 7%; % CBI 50 μM, (30° C.) [2]: (80 ± 1) %; % CBI 50 μM, 37° C. [2]: 87 ± 1%; GI50 (PC-3 cells; [9]): 8.8 ± 0.8 µM; GI50 (PC-3 cells; [10]): 6.2 ± 1.3 µM; GI50 (MDA-MB231 cells; [11]): 4.1 ± 1.1 µM; GI50 (MDA-MB231 cells; [12]): 1.8 ± 0.3 µM; GI50 (2008 cells; [13]): 3.7 ± 1.5 µM; GI50 (2008 cells; [14]): 0.45 ± 0.5 µM
COc1cc(/C=C\CC/C=C/C=C(\C)CCC(O)c2cccs2)cc(OC)c1OC (stereo not shown) [Compound 17c, (4E,6E,10Z)-11-(3,4,5-Trimethoxyphenyl)-4-methyl-1-thiophen-2-ylundeca-4,6,10-trien-1-ol] | 1.2 | 39 ± 10 | 9 ± 3 | 0.38 ± 0.08 | 0.28 ± 0.04 | 0.28 ± 0.02 | – | – | – | – | – | – | – | – | – | concentration causing maximum mitotic block ([3]; 14 hours): sub-micromolar
COc1cc(/C=C\CC/C=C/C=C(\C)CCC(O)c2cc3ccccc3s2)cc(OC)c1OC (stereo not shown) [Compound 17b, (4E,6E,10Z)-11-(3,4,5-Trimethoxyphenyl)-4-methyl-1-benzothiophen-2ylundeca-4,6,10-trien-1ol] | 1.4 | 9 ± 7 | 19 ± 2 | 0.62 ± 0.05 | 0.23 ± 0.06 | 0.36 ± 0.001 | – | – | – | – | – | – | – | – | – | fraction of cells exhibiting condensed chromatin and increased core histone phosphorylation ([3]; 14-16 hours): large increase
COc1ccc(/C=C\CC/C=C/C=C(\C)CCC(O)c2cc3ccccc3o2)c(OC)c1 (stereo not shown) [Compound 19AR3] | – | – | – | – | – | – | 60.4 | −50.0 ± 12.7 | −29.0 ± 9.2 | 49.1 ± 8.9 | > 50 | 6.43 ± 7.42 | 42.1 ± 1.4 | 17.7 ± 2.7 | 12.2 ± 2.7 | Percent Colchicine Binding Inhibition (CBI), 1 μM [2]: 0.7 ± 16.2%
COc1cc(C=NOCC2CC2CCC(C)c2cccs2)cc(OC)c1OC (stereo not shown) [JRoxime3] | – | – | – | – | – | – | – | – | – | – | – | – | – | – | – | % TPI 5 μM [1]: 3%; % CBI 5 μM, (30° C.) [2]: (−10 ± 10) %; % CBI 5 μM, 37° C. [2]: −30 ± 6%; % CBI 50 μM, (30° C.) [2]: (18 ± 6) %; % CBI 50 μM, 37° C. [2]: −30 ± 7%; GI50 (PC-3 cells; [9]): > 50 µM; GI50 (PC-3 cells; [10]): > 50 µM; GI50 (MDA-MB231 cells; [11]): > 50 µM; GI50 (MDA-MB231 cells; [12]): > 50 µM; GI50 (2008 cells; [13]): > 50 µM; GI50 (2008 cells; [14]): > 50 µM
COc1ccc(/C=C\CC/C=C/C=C(\C)CCC(O)c2ccco2)c(OC)c1 (stereo not shown) [Compound 19AR1] | – | – | – | – | – | – | 81.7 | −2.2 ± 8.2 | 13.2 ± 12.7 | > 50 | > 50 | 3.26 ± 6.13 | 26.8 ± 0.9 | 19.1 ± 3.1 | 20.2 ± 2 | Percent Colchicine Binding Inhibition (CBI), 1 μM [2]: −4.6 ± 8.5%
COc1cc(/C=C\CC/C=C/C=C(\C)CCC(O)c2cc3ccccc3s2)cc(OC)c1OC (stereo not shown) [Compound 19CR4] | – | – | – | – | – | – | >100 | 5.0 ± 7.4 | 73.0 ± 2.4 | 0.634 ± 0.397 | 0.933 ± 1.25 | 0.221 ± 0.033 | 0.243 ± 0.046 | 0.268 ± 0.046 | 0.314 ± 0.025 | –
COc1cc(/C=C\CC/C=C/C=C(\C)CCC(O)c2cccs2)cc(OC)c1OC (stereo not shown) [Compound 19CR2] | – | – | – | – | – | – | >100 | 30.2 ± 7.3 | 71.6 ± 2.8 | 1.22 ± 0.22 | 0.875 ± 1.02 | 1.28 ± 0.12 | 0.083 ± 0.125 | 0.235 ± 0.021 | 0.38 ± 0.002 | –
COc1ccc(OC)c(C(O)CCC(C)=CC=CCCC=Cc2cc(OC)c(OC)c(OC)c2)c1 (stereo not shown) [Compound 17f, (4E,6E,10Z)-11-(3,4,5-Trimethoxyphenyl)-4-methyl-1-(2,5-dimethoxy-phenyl)-2-ylundeca-4,6,10-trien-1-ol] | > 50 | > 50 | > 50 | > 50 | 9.7 ± 1 | 22 ± 5 | – | – | – | – | – | – | – | – | – | –
COc1ccc(/C=C\CC/C=C/C=C(\C)CCC(O)c2cccs2)c(OC)c1 (stereo not shown) [Compound 19AR2] | – | – | – | – | – | – | 51.8 | −2.7 ± 6.5 | −31.7 ± 7.8 | 37.3 ± 6.5 | > 50 | 7.18 ± 4.67 | 24 ± 1.2 | 25.9 ± 2.1 | 23.8 ± 1.1 | Percent Colchicine Binding Inhibition (CBI), 1 μM [2]: −0.7 ± 7.5%
